Here are results for five compounds from US7772428B2, “Creatine hydroxycitric acids salts and methods for their production and use in individuals” (Northern Innovations and Formulations, priority 2005, dated 2010).

Read-outs that look alike come from different tables or passages of the source.

For data set [1] the following is noted: in vivo.
Data set [2] is described as follows: Stability (in water and acidic solutions). Conditions: stated in words, Example 1.
The next data set can be described thus: Bioavailability. The following applies: stated in words, Example 1.
In another data set the target is T1, ATP citrate lyase (Homo sapiens, UniProt P53396).
T1 sequence (P53396 1-1101): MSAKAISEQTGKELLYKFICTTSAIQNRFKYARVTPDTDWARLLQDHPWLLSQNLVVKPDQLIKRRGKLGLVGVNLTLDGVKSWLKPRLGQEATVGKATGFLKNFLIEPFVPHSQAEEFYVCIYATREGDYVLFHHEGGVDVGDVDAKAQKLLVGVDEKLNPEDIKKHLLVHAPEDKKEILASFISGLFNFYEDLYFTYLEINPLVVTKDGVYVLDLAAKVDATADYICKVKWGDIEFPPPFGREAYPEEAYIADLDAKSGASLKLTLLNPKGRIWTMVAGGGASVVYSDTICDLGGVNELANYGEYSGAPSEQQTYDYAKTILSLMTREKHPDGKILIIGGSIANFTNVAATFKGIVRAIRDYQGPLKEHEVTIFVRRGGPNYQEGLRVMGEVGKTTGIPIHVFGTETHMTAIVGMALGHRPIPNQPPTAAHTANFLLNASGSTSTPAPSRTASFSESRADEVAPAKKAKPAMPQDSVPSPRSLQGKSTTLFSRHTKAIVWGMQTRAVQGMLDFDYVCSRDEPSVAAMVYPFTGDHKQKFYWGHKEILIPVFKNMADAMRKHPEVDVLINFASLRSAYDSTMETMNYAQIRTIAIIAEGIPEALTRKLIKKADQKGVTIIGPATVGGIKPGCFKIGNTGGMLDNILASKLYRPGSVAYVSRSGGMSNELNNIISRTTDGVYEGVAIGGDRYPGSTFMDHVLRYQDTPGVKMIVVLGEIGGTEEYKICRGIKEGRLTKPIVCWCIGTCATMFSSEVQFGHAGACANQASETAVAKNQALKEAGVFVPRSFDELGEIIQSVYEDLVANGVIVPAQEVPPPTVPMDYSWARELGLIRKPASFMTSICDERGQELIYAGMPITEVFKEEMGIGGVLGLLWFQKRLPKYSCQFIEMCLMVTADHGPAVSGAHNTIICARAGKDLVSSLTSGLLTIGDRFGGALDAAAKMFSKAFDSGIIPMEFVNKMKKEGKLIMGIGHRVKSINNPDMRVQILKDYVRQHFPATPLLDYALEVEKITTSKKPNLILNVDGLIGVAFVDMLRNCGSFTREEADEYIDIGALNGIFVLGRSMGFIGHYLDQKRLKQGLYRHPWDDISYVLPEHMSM
Conditions: cited from earlier work.

For data set [3] the following is noted: daily doses of about 20 g of creatine for 5-7 days; cited from earlier work.

On to `CN(CC(=O)O)C(=N)N.O.O=C([O-])CC(O)(C(=O)[O-])C(O)C(=O)O.[K+].[K+]` (stereo not shown) [(Mono)-creatine dipotassium hydroxycitrate monohydrate], for which the bioavailability entry in data set [1] is reported as “bioavailable”. As to `CN(CC(=O)O)C(=N)N.CN(CC(=O)O)C(=N)N.O.O=C(O)CC(O)(C(=O)O)C(O)C(=O)[O-].[K+]` (stereo not shown) [Dicreatine (mono) potassium hydroxycitrate monohydrate], the stability entry in data set [2] was “stable”. Moreover, the bioavailability result in the data set “Bioavailability” was “bioavailable”. On to `O=C(O)CC(O)(C(=O)O)C(O)C(=O)O` (stereo not shown) [Hydroxycitric acid], for which the “activity of ATP citrate lyase” value on ATP citrate lyase is on record as “inhibit”. Take `CN(CC(=O)O)C(=N)N` [creatine]: the “increase of total creatine content in the muscle” value in data set [3] is listed as 10-25%. Regarding Tricreatine hydroxycitrate monohydrate, the stability entry in data set [2] is reported as “stable”. For the same compound, in the data set “Bioavailability”, the bioavailability result is recorded as “bioavailable”.
